Measurements published in the supplement of paper PMC10307832.

How the values were obtained:
Experiment in all cases: relative viability (nuclei count vs DMSO), 5 days (fraction); higher = more cells survive
[1] = compound: CC1CC(=O)N(C2=CN=C(N=C2N1C3CCCC3)NC4=C(C=C(C=C4)C(=O)NC5CCN(CC5)C)OC)C [NPK76-II-72-1] + CS(=O)(=O)CCNCc1ccc(-c2ccc3ncnc(Nc4ccc(OCc5cccc(F)c5)c(Cl)c4)c3c2)o1 [Lapatinib] (partner 2 µM)
Procedure, shortened: (§1)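 Nuclei were stained with Hoechst during a one-step fixation (final 0.05% Triton X-100, 1% formaldehyde, 1 ug/ml Hoechst) carried out 5 days after dosing, then counted on 4× images. The cells, lung cancer lines in 1536-well plates, had been dosed by pin tool the day after seeding with one drug alone or a fixed anchor-drug dose plus five library-drug doses (not always all listed) in √10 steps. Relative viability is the nuclei count in treated wells divided by that in vehicle wells, and each value is the median of duplicate plates.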

[2] = compound: CC1CC(=O)N(C2=CN=C(N=C2N1C3CCCC3)NC4=C(C=C(C=C4)C(=O)NC5CCN(CC5)C)OC)C [NPK76-II-72-1] + Cc1cc(Nc2cc(N3CCN(C)CC3)nc(Sc3ccc(NC(=O)C4CC4)cc3)n2)n[nH]1 [Tozasertib] (partner 0.1 µM)
Procedure, shortened: as §1

[3] = compound: CC1CC(=O)N(C2=CN=C(N=C2N1C3CCCC3)NC4=C(C=C(C=C4)C(=O)NC5CCN(CC5)C)OC)C [NPK76-II-72-1] + O=C(c1cc(Cc2n[nH]c(=O)c3ccccc23)ccc1F)N1CCN(C(=O)C2CC2)CC1 [Olaparib] (partner 8 µM)
Procedure, shortened: as §1

[4] = compound: CC1CC(=O)N(C2=CN=C(N=C2N1C3CCCC3)NC4=C(C=C(C=C4)C(=O)NC5CCN(CC5)C)OC)C [NPK76-II-72-1] + CC(C)C[C@H](NC(=O)[C@H](Cc1ccccc1)NC(=O)c1cnccn1)B(O)O [Bortezomib] (partner 0.002 µM)
Procedure, shortened: as §1

Cell Line | relative viability ([1]; first compound 0.01 µM) | relative viability ([1]; first compound 0.03162 µM) | relative viability ([1]; first compound 0.1 µM) | relative viability ([1]; first compound 0.3162 µM) | relative viability ([1]; first compound 1 µM) | relative viability ([2]; first compound 0.01 µM) | relative viability ([2]; first compound 0.03162 µM) | relative viability ([2]; first compound 0.1 µM) | relative viability ([2]; first compound 0.3162 µM) | relative viability ([2]; first compound 1 µM) | relative viability ([3]; first compound 0.01 µM) | relative viability ([3]; first compound 0.03162 µM) | relative viability ([3]; first compound 0.1 µM) | relative viability ([3]; first compound 0.3162 µM) | relative viability ([3]; first compound 1 µM) | relative viability ([4]; first compound 0.01 µM) | relative viability ([4]; first compound 0.03162 µM) | relative viability ([4]; first compound 0.1 µM) | relative viability ([4]; first compound 0.3162 µM) | relative viability ([4]; first compound 1 µM)
RERF-LC-KJ | 0.818 | 0.869 | 0.841 | 0.818 | 0.979 | 0.589 | 0.51 | 0.573 | 0.548 | 0.513 | 0.903 | 0.914 | 0.908 | 0.901 | 0.905 | 1.11 | 1.11 | 1.07 | 0.916 | 1.08
NCI-H1650 | 0.859 | 0.756 | 0.912 | 0.835 | 0.86 | 0.397 | 0.444 | 0.429 | 0.501 | 0.386 | 0.661 | 0.751 | 0.721 | 0.82 | 0.784 | 0.211 | 0.191 | 0.183 | 0.218 | 0.211
BEN | 0.61 | 0.548 | 0.657 | 0.492 | 0.697 | 0.462 | 0.46 | 0.551 | 0.496 | 0.552 | 1.01 | 1.14 | 1.04 | 1.03 | 1 | 0.773 | 0.659 | 0.763 | 0.466 | 0.875
NCI-H2170 | 0.267 | 0.286 | 0.257 | – | 0.268 | 0.688 | 0.708 | 0.69 | 0.527 | 0.812 | 0.57 | 0.572 | 0.666 | 0.381 | 0.656 | – | – | – | – | –
NCI-H1299 | 0.949 | 1.01 | 0.957 | 0.961 | 0.954 | – | – | – | – | – | 0.946 | 1.01 | 0.953 | 0.95 | 0.947 | 0.994 | 1.07 | 1.02 | 1.02 | 1
EBC-1 | 0.193 | 0.182 | 0.218 | 0.229 | 0.218 | – | – | – | – | – | 0.697 | 0.734 | 0.712 | 0.7 | 0.812 | 0.543 | 0.63 | 0.608 | 0.562 | 0.713
NCI-H2342 | – | – | – | – | – | 0.621 | 0.467 | 0.498 | 0.437 | 0.537 | 0.393 | 0.377 | 0.457 | 0.43 | 0.535 | – | – | – | – | –
NCI-H1792 | 0.894 | 0.965 | 0.923 | 0.964 | 1.01 | – | – | – | – | – | – | 0.362 | 0.357 | 0.419 | 0.742 | 1.06 | 0.961 | 0.829 | 0.879 | 1.07
ChaGo-K-1 | – | – | – | – | – | 0.239 | 0.256 | 0.238 | 0.225 | 0.231 | 0.417 | 0.401 | 0.392 | 0.418 | 0.448 | 0.988 | 0.945 | 0.994 | 0.744 | 1.01
LK-2 | 0.83 | 0.886 | 0.877 | 0.774 | 1.12 | 0.159 | 0.195 | 0.183 | 0.187 | 0.213 | 0.775 | 0.716 | 0.679 | 0.565 | 0.725 | – | – | – | – | –
